pKi: −log10 of the molar value.
Tests used:
[1] = molecular target: Sodium-dependent dopamine transporter (Rattus norvegicus, UniProt P23977); test: Displacement of [3H]beta-CIT from DAT in rat caudate homogenate
[2] = molecular target: Monoamine transporters; Norepinephrine & serotonin (Rattus norvegicus) (UniProt P31652+Q9WTR4); test: Selectivity for SERT over NET; assay type: protein assay
[3] = molecular target: Monoamine transporters; serotonin & dopamine (Rattus norvegicus) (UniProt P31652+P23977); test: Selectivity for SERT over DAT; assay type: protein assay
Sequence of Monoamine transporters; serotonin & dopamine (Rattus norvegicus) (P23977 whole entry, looked up): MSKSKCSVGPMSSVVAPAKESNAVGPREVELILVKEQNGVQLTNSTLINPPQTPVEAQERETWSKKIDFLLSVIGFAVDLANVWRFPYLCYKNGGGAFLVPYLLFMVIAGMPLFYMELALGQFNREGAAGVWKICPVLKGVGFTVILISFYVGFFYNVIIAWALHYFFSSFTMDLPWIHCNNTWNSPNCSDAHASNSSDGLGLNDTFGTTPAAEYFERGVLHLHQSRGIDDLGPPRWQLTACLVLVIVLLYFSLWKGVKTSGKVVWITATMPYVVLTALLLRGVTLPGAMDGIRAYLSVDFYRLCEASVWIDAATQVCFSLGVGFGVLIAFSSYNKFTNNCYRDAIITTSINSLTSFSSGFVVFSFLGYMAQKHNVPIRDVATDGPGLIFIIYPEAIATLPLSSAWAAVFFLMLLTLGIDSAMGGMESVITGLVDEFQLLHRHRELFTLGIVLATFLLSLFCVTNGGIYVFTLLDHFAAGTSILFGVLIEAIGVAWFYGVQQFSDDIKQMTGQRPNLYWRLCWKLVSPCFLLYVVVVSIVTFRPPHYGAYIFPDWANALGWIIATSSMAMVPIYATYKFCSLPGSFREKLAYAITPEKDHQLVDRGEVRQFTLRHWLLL
Sequence of Monoamine transporters; serotonin & dopamine (Rattus norvegicus) (P31652 whole entry, looked up): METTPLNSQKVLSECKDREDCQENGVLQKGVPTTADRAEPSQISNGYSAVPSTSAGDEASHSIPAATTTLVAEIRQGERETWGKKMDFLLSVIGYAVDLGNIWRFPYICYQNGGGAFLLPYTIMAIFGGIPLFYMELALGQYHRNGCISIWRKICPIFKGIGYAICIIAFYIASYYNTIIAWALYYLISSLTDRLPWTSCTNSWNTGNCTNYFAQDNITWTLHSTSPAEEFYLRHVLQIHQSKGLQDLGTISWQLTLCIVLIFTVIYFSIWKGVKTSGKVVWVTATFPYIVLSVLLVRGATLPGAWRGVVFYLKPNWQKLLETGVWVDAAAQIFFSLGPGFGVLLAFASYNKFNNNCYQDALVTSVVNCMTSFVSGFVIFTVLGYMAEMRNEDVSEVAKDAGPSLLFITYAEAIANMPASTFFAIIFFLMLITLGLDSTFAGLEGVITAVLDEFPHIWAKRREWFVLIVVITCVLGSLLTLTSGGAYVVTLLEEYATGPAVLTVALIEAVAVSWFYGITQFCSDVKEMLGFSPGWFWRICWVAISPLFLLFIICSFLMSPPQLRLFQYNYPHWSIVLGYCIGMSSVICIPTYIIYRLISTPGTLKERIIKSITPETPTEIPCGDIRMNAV

[4] = molecular target: Sodium-dependent serotonin transporter (Rattus norvegicus, UniProt P31652); test: Displacement of [3H]cyanoimipramine from SERT in rat cerebral cortex homogenate; assay type: tissue-based
Sequence of Sodium-dependent serotonin transporter (P31652 whole entry): as the sequence (P31652 whole entry, looked up) above

[5] = molecular target: Norepinephrine transporter (Rattus norvegicus, UniProt Q9WTR4); test: Displacement of [3H]nisoxetine from NET in rat cerebral cortex; assay type: tissue-based
Sequence of Norepinephrine transporter (Q9WTR4 whole entry): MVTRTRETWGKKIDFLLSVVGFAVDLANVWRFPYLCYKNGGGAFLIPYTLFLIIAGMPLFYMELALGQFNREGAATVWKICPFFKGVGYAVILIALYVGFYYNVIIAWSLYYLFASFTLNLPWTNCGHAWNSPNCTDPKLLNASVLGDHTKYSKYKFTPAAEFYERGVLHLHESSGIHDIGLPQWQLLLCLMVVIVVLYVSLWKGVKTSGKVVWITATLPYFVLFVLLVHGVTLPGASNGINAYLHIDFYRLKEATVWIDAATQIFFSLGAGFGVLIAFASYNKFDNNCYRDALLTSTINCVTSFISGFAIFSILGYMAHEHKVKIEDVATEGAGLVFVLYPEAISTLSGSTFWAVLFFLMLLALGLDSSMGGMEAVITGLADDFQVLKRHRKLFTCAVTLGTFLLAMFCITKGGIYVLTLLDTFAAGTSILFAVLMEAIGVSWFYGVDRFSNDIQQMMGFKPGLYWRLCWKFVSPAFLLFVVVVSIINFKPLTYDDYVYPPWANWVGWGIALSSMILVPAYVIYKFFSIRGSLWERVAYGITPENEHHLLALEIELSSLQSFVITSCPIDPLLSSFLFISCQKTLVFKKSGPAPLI

Sequence of Sodium-dependent dopamine transporter (P23977 whole entry): as the sequence (P23977 whole entry, looked up) above

## COC(=O)[C@@H]1CN(C)CC[C@@H]1c1ccc(-c2ccco2)cc1
[1]
  pKi: 6.69
[2]
  Ratio Ki: > 2700
[3]
  Ratio Ki: 11.1
[4]
  pKi: 7.73
[5]
  pKi: < 4.30

## COC(=O)[C@@H]1CN(C)CC[C@@H]1c1ccc(I)cc1
[1]
  pKi: 6.71
[2]
  Ratio Ki: 59.9
[3]
  Ratio Ki: 11.2
[4]
  pKi: 6.78

## COC(=O)[C@@H]1CN(C)CC[C@@H]1c1ccc(-c2nccs2)cc1 (racemic) [listing 1 of 2 here]
[1]
  pKi: < 5.00
[4]
  pKi: < 5.30
[5]
  pKi: < 4.70

## COC(=O)[C@@H]1CN(C)CC[C@@H]1c1ccc(-c2ccsc2)cc1
[1]
  pKi: 6.22
[2]
  Ratio Ki: > 3140
[3]
  Ratio Ki: 188
[4]
  pKi: 7.50
[5]
  pKi: < 5.00

## COC(=O)[C@H]1[C@@H](c2ccc(I)cc2)C[C@@H]2CC[C@H]1N2C
[1]
  pKi: 9.02
[2]
  Ratio Ki: 6.1
[3]
  Ratio Ki: 2.1
[5]
  pKi: 8.55

## COC(=O)[C@@H]1CN(C)CC[C@@H]1c1ccc(/C=C\I)cc1
[1]
  pKi: 6.91
[2]
  Ratio Ki: > 3800
[3]
  Ratio Ki: 15.6
[4]
  pKi: 8.10
[5]
  pKi: < 4.52

## COC(=O)[C@@H]1CN(C)CC[C@@H]1c1ccc(-c2nccs2)cc1 (racemic) [listing 2 of 2 here]
[2]
  Ratio Ki: 4
[3]
  Ratio Ki: 2

## COC(=O)[C@@H]1CN(C)CC[C@@H]1c1ccc(-c2nccs2)cc1 [listing 1 of 2 here]
[2]
  Ratio Ki: 5
[3]
  Ratio Ki: 1

## COC(=O)[C@@H]1CN(C)CC[C@@H]1c1ccc(C=O)cc1
[1]
  pKi: < 5.00
[2]
  Ratio Ki: 17.3
[3]
  Ratio Ki: 5.8
[4]
  pKi: 5.76
[5]
  pKi: < 4.52

## COC(=O)[C@@H]1CN(C)CC[C@@H]1c1ccc(-c2nccs2)cc1 [listing 2 of 2 here]
[4]
  pKi: < 5.00
[5]
  pKi: < 4.30

## COC(=O)[C@@H]1CN(C)CC[C@@H]1c1ccc(-c2cccs2)cc1
[1]
  pKi: ≤ 5.30
[2]
  Ratio Ki: > 551
[3]
  Ratio Ki: > 55
[4]
  pKi: 7.04
[5]
  pKi: < 4.30

Reference: ChEMBL document CHEMBL1146896, “Synthesis and monoamine transporter affinity of 2beta-carbomethoxy-3beta-(4'-p-substituted phenyl)-piperidine analogs of cocaine” (Bioorg Med Chem Lett, 2006)
